# Measurements as given in patent publication US10961200B2, “Small molecule inhibitors of lactate dehydrogenase and methods of use thereof” (THE UNITED STATES OF AMERICA, AS REPRESENTED BY THE …, priority 2014, dated 2021).
# Target: Human LDHA (Homo sapiens (Human), UniProt P00338)
# Assay: human LDHA primary biochemical assay (resazurin/diaphorase coupled, fluorescence)
# Conditions: LDHA inhibitory activity, activity level based on IC50 (Table 7)
# Source text: Test compounds were placed in a Greiner Bio-One (Monroe, N.C.) 1536-well black solid bottom assay plate. 200 millimolar (mM) Tris HCl, pH 7.4, 100 micromolar […] EDTA and 0.01% TWEEN-20™, final concentration, was used as the assay buffer. The LDHA reagent was 2 nanomolar (nM) Human LDHA (Meridian Life Science, Inc., Memphis, Tenn.), final concentration, in assay buffer.
row,SMILES,IC50 [nM]
1,NS(=O)(=O)c1ccc(Cc2c(-c3cccc(-c4ccc(F)cc4)c3)nn(-c3nc(C(=O)O)cs3)c2C2CC2)cc1F [Compound 349],< 100
2,N[S+](=O)([O-])c1ccc(Cc2c(C3CC3)nn(-c3nc(C(=O)O)cs3)c2-c2cccc(-c3cccc(F)c3)c2)cc1F [Compound 350],1000 to 57000
3,NS(=O)(=O)c1ccc(Cc2c(-c3cccc(-c4cccc(F)c4)c3)nn(-c3nc(C(=O)O)cs3)c2C2CC2)cc1F [Compound 351],< 100
4,COc1cccc(-c2cccc(-c3c(Cc4ccc([S+](N)(=O)[O-])c(F)c4)c(C4CC4)nn3-c3nc(C(=O)O)cs3)c2)c1 [Compound 352],1000 to 57000
5,COc1cccc(-c2cccc(-c3nn(-c4nc(C(=O)O)cs4)c(C4CC4)c3Cc3ccc(S(N)(=O)=O)c(F)c3)c2)c1 [Compound 353],< 100
6,Cc1ccc(-c2cccc(-c3c(Cc4ccc(S(N)(=O)=O)cc4F)c(C4CC4)nn3-c3nc(C(=O)O)cs3)c2)cc1 [Compound 354],1000 to 57000
7,Cc1ccc(-c2cccc(-c3nn(-c4nc(C(=O)O)cs4)c(C4CC4)c3Cc3ccc(S(N)(=O)=O)cc3F)c2)cc1 [Compound 355],< 100
8,NS(=O)(=O)c1ccc(Cc2c(C3CC3)nn(-c3nc(C(=O)O)cs3)c2-c2cccc(-c3ccc(F)cc3)c2)c(F)c1 [Compound 356],1000 to 57000
9,NS(=O)(=O)c1ccc(Cc2c(-c3cccc(-c4ccc(F)cc4)c3)nn(-c3nc(C(=O)O)cs3)c2C2CC2)c(F)c1 [Compound 357],< 100
10,NS(=O)(=O)c1ccc(Cc2c(C3CC3)nn(-c3nc(C(=O)O)cs3)c2-c2cccc(-c3cccc(F)c3)c2)c(F)c1 [Compound 358],1000 to 57000
11,NS(=O)(=O)c1ccc(Cc2c(-c3cccc(-c4cccc(F)c4)c3)nn(-c3nc(C(=O)O)cs3)c2C2CC2)c(F)c1 [Compound 359],< 100
12,COc1cccc(-c2cccc(-c3c(Cc4ccc(S(N)(=O)=O)cc4F)c(C4CC4)nn3-c3nc(C(=O)O)cs3)c2)c1 [Compound 360],1000 to 57000
13,COc1cccc(-c2cccc(-c3nn(-c4nc(C(=O)O)cs4)c(C4CC4)c3Cc3ccc(S(N)(=O)=O)cc3F)c2)c1 [Compound 361],< 100
14,Cc1ccc(-c2cc(-c3nn(-c4nc(C(=O)O)cs4)c(CC4CC4)c3Cc3ccc(S(N)(=O)=O)c(F)c3)ccc2F)cc1 [Compound 362],< 100
15,Cc1ccc(-c2cccc(-c3nn(-c4nc(C(=O)O)cs4)c(CC4CC4)c3Cc3ccc(S(N)(=O)=O)cc3F)c2)cc1 [Compound 363],< 100
16,N[S+](=O)([O-])c1ccc(Cc2c(-c3ccc(F)c(-c4ccc(F)cc4)c3)nn(-c3nc(C(=O)O)cs3)c2CC2CC2)c(F)c1 [Compound 364],< 100
17,NS(=O)(=O)c1ccc(Cc2c(-c3cccc(N4CCC(C(F)(F)F)CC4)c3)nn(-c3nc(C(=O)O)cs3)c2CC2CC2)cc1F [Compound 392],< 100
18,COc1ccc(-c2cc(O)n(-c3nc(C(=O)O)cs3)n2)cc1 [Compound 424],> 57000
19,O=C(O)c1csc(-n2nc(-c3ccc(F)cc3)cc2O)n1 [Compound 425],> 57000
20,O=C(O)c1csc(-n2nc(-c3ccc(Cl)cc3)cc2C(F)(F)F)n1 [Compound 427],1000 to 57000
21,Cc1oc(=O)oc1COC(=O)c1csc(-n2nc(-c3ccc(F)c(C#CC4CCCC4)c3)c(Cc3ccc(S(N)(=O)=O)c(F)c3)c2CC2CC2)n1 [Compound 441],> 57000
22,CCOC(=O)c1csc(-n2nc(-c3ccc(F)c(C#Cc4ccc(C)s4)c3)c(Cc3ccc(S(N)(=O)=O)c(F)c3)c2CC2CC2)n1 [Compound 447],> 57000

row,SMILES,IC50 [nM]
1,CC(C)(C)/C=C/c1cc(-c2nn(-c3nc(C(=O)O)cs3)c(CC3CC3)c2Cc2ccc([S+](N)(=O)[O-])c(F)c2)ccc1F [Compound 448],< 100
2,Cc1ccc(C#Cc2cccc(-c3nn(-c4nc(C(=O)O)cs4)c(CC4CC4)c3Cc3ccc(S(N)(=O)=O)c(F)c3)c2)s1 [Compound 449],< 100
3,C/C=C(\C)c1cc(-c2nn(-c3nc(C(=O)O)cs3)c(CC3CC3)c2Cc2ccc(S(N)(=O)=O)c(F)c2)ccc1F [Compound 450],< 100
4,NS(=O)(=O)c1ccc(Cc2c(-c3cccc4ccccc34)nn(-c3nc(C(=O)O)cs3)c2O)cc1 [Compound 451],1000 to 57000
5,"NS(=O)(=O)c1ccc(Cc2c(-c3cccnc3)nn(-c3nc(C(=O)O)cs3)c2O)cc1 [Compound 453, 2-(5-hydroxy-3-(pyridin-3-yl)-4-(4-sulfamoylbenzyl)-1H-pyrazol-1-yl)thiazole-4-carboxylic acid]",1000 to 57000
6,"NS(=O)(=O)c1ccc(Cc2c(-c3cccc4cc(F)ccc34)nn(-c3nc(C(=O)O)cs3)c2O)cc1 [Compound 454, 2-(3-(6-fluoronaphthalen-1-(57%)yl)-5-hydroxy-4-(4-sulfamoylbenzyl)-1H-pyrazol-1-yl)thiazole-4-carboxylic acid]",1000 to 57000
7,"COc1c(Cc2ccc(S(N)(=O)=O)cc2)c(-c2ccc(F)c(F)c2)nn1-c1nc(C(=O)O)cs1 [Compound 455, 2-(3-(3,4-difluorophenyl)-5-methoxy-4-(4-sulfamoylbenzyl)-1H-pyrazol-1-yl)thiazole-4-carboxylic acid]",100 to 1000
8,"COc1cccc(-c2cc(-c3nn(-c4nc(C(=O)O)cs4)cc3Cc3ccc(S(N)(=O)=O)cc3)ccc2F)c1 [Compound 456, 2-(3-(6-fluoro-3′-methoxy-[1,1′-biphenyl]-3-yl)-4-(4-sulfamoylbenzyl)-1H-pyrazol-1-yl)thiazole-4-carboxylic acid]",< 100
9,"NS(=O)(=O)c1ccc(Cc2cn(-c3nc(C(=O)O)cs3)nc2-c2ccc(F)c(-c3cccc(Cl)c3)c2)cc1 [Compound 457, 2-(3-(3′-chloro-6-fluoro-[1,1′-biphenyl]-3-yl)-4-(4-sulfamoylbenzyl)-1H-pyrazol-1-yl)thiazole-4-carboxylic acid]",< 100
10,"CC(C)Oc1cccc(-c2nn(-c3nc(C(=O)O)cs3)cc2Cc2ccc(S(N)(=O)=O)cc2)c1 [Compound 459, 2-(3-(3-isopropoxyphenyl)-4-(4-sulfamoylbenzyl)-1H-pyrazol-1-yl)thiazole-4-carboxylic acid]",< 100
11,"NS(=O)(=O)c1ccc(Cc2cn(-c3nc(C(=O)O)cs3)nc2-c2cccc(OC3CCCC3)c2)cc1 [Compound 460, 2-(3-(3-(cyclopentyloxy)phenyl)-4-(4-sulfamoylbenzyl)-1H-pyrazol-1-yl)thiazole-4-carboxylic acid]",< 100
12,"NS(=O)(=O)c1ccc(Cc2cn(-c3nc(C(=O)O)cs3)nc2-c2cccc(OCC3CCOC3)c2)cc1 (centres unmarked) [Compound 461, 2-(4-(4-sulfamoylbenzyl)-3-(3-((tetrahydrofuran-3-yl)methoxy)phenyl)-1H-pyrazol-1-yl)thiazole-4-carboxylic acid]",< 100
13,"COc1cccc(COc2cccc(-c3nn(-c4nc(C(=O)O)cs4)cc3Cc3ccc(S(N)(=O)=O)cc3)c2)c1 [Compound 462, 2-(3-(3-((3-methoxybenzyl)oxy)phenyl)-4-(4-sulfamoylbenzyl)-1H-pyrazol-1-yl)thiazole-4-carboxylic acid]",< 100
14,"NS(=O)(=O)c1ccc(Cc2cn(-c3nc(C(=O)O)cs3)nc2-c2cccc(OCC3CCCO3)c2)cc1 (centres unmarked) [Compound 463, 2-(4-(4-sulfamoylbenzyl)-3-(3-((tetrahydrofuran-2-yl)methoxy)phenyl)-1H-pyrazol-1-yl)thiazole-4-carboxylic acid]",< 100
15,"NS(=O)(=O)c1ccc(Cc2cn(-c3nc(C(=O)O)cs3)nc2-c2cccc(Oc3ccccc3)c2)cc1 [Compound 464, 2-(3-(3-phenoxyphenyl)-4-(4-sulfamoylbenzyl)-1H-pyrazol-1-yl)thiazole-4-carboxylic acid]",< 100
16,"NS(=O)(=O)c1ccc(Cc2cnn(-c3nc(C(=O)O)cs3)c2-c2ccc3ccccc3c2)cc1 [Compound 474, 2-(5-(naphthalen-2-yl)-4-(4-sulfamoylbenzyl)-1H-pyrazol-1-yl)thiazole-4-carboxylic acid]",< 100
17,"NS(=O)(=O)c1ccc(Cc2cnn(-c3nc(C(=O)O)cs3)c2-c2cccnc2)cc1 [Compound 475, 2-(5-(pyridin-3-yl)-4-(4-sulfamoylbenzyl)-1H-pyrazol-1-yl)thiazole-4-carboxylic acid]",100 to 1000
18,"Cc1ccc(-c2cc(-c3nn(-c4nc(C(=O)O)cs4)cc3Cc3ccc(S(N)(=O)=O)cc3)ccc2F)cc1 [Compound 476, 2-(3-(6-fluoro-4′-methyl-[1,1′-biphenyl]-3-yl)-4-(4-sulfamoylbenzyl)-1H-pyrazol-1-yl)thiazole-4-carboxylic acid]",< 100
19,"NS(=O)(=O)c1ccc(Cc2c(-c3ccc(F)c(-c4ccc(F)cc4)c3)nn(-c3nc(C(=O)O)cs3)c2C2CC2)cc1 [Compound 482, 2-(5-cyclopropyl-3-(4′,6-difluoro-[1,1′-biphenyl]-3-yl)-4-(4-sulfamoylbenzyl)-1H-pyrazol-1-yl)thiazole-4-carboxylic acid]",< 100
20,"COc1cccc(-c2cc(-c3nn(-c4nc(C(=O)O)cs4)c(C4CC4)c3Cc3ccc(S(N)(=O)=O)cc3)ccc2F)c1 [Compound 483, 2-(5-cyclopropyl-3-(6-fluoro-3′-methoxy-[1,1′-biphenyl]-3-yl)-4-(4-sulfamoylbenzyl)-1H-pyrazol-1-yl)thiazole-4-carboxylic acid]",< 100
21,"Cc1ccc(-c2cc(-c3nn(-c4nc(C(=O)O)cs4)c(C4CC4)c3Cc3ccc(S(N)(=O)=O)cc3)ccc2F)cc1 [Compound 484, 2-(5-cyclopropyl-3-(6-fluoro-4′-methyl-[1,1′-biphenyl]-3-yl)-4-(4-sulfamoylbenzyl)-1H-pyrazol-1-yl)thiazole-4-carboxylic acid]",< 100
22,"Cc1ccc(-c2nn(-c3nc(C(=O)O)cs3)cc2Cc2ccc(S(N)(=O)=O)cc2)cc1-c1cccnc1 [Compound 486, 2-(3-(4-methyl-3-(pyridin-3-yl)phenyl)-4-(4-sulfamoylbenzyl)-1H-pyrazol-1-yl)thiazole-4-carboxylic acid]",< 100
